Read-outs that look alike come from different tables or passages of the source.
Biological target: T1, Human BCL-XL protein (N-terminal HiBiT tagged BCL-XL in HT1080 cells) (Homo sapiens, UniProt Q07817)
T1 construct: expressed in transfected cells; host or cells: HT-1080 (ATCC CCL-121), stably transduced with lentivirus pLV-UBC-N-HiBiT-BCL-XL-PGK-puro and selected with puromycin
Assay: HiBiT based degradation assay
Type: cell-based
Settings: HT1080 cells expressing HiBiT-BCL-XL; for DC50: BCL-XL degradation
Source text: Human BCL-XL protein coding open reading frame fused with N-terminal HiBiT coding sequence was synthesized from Integrated DNA Technologies (IDT). Next, N-HiBiT-BCL-XL sequence was cloned into pLV-UBC-PGK-Puro, a lentivirus plasmid purchased from Vectorbuilder, to generate pLV-UBC-N-HiBiT-BCL-XL-PGK-puro. Lentiviral particles were generated from Lenti-X™ 293T cells (Clontech) by co-transfection of pLV-UBC-N-HiBiT-BCL-XL-PGK-puro plasmids and lentiviral packaging plasmid mix (Cellecta). HT-1080 [HT1080](ATCC CCL-121) cells were infected with the lentivirus, and HT1080 cells stably integrated with the lentiviral vectors were established by incubation with 1 μg/mL puromycin (Thermofisher).
HT1080 cells expressing N-terminal HiBiT tagged BCL-XL were dispensed into a 384-well plate pre-spotted with compounds at varying concentrations. Three thousand cells were seeded into each well in 40 μL of RPMI 1640 media. […] After incubation, luminescence was read on a PHERAstar FSX Plate Reader (BMG). BCL-XL degradation at each indicated concentration was normalized with the DMSO control. The BCL-XL degradation curves were plotted using a four-parameter logistic model. For compounds displaying hook effects, the curve fitting was performed using the bottom point of the hook curves (i.e., the point of Ymin) as the bottom plateau to calculate EC50.

[1] = BCL-XL degradation normalized with DMSO control, 24 h

T1 sequence (Q07817 whole entry): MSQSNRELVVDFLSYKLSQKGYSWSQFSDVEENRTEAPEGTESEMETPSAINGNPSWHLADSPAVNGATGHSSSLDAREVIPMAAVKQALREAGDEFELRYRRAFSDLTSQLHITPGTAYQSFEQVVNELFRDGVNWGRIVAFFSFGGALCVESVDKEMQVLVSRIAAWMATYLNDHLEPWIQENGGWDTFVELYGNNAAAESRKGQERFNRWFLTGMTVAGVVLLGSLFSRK

Question: For `Cc1c(OCCC[C@@H]2CCCN(CC(=O)Nc3cccc4c(C5CCC(=O)NC5=O)nn(C)c34)C2)cccc1-c1ccc(N2CCc3cccc(C(=O)Nc4nc5ccccc5s4)c3C2)nc1C(=O)O` (single isomer, unassigned) [Compound 210a], which “Ymin (24 h)” value [1] is on record?
Answer: B (50% ≤ Ymin < 70%)

Question: And the DC50 (24 h, read-out: EC50 (24 h))?
Answer: < 100 nM

Question: How did the “Ymin (6 h)” value (BCL-XL degradation normalized with DMSO control, 6 h) turn out when `Cc1c(OCCC[C@H]2CCCN(CC(=O)Nc3cccc4c(C5CCC(=O)NC5=O)nn(C)c34)C2)cccc1-c1ccc(N2CCc3cccc(C(=O)Nc4nc5ccccc5s4)c3C2)nc1C(=O)O` (single isomer, unassigned) [Compound 210b] was run?
Answer: C (Ymin ≥ 70%)

Question: What about the “Ymin (24 h)” value [1] of the same compound?
Answer: C (Ymin ≥ 70%)

Question: And the DC50 (6 h, read-out: EC50 (6 h))?
Answer: 1000 to 10000 nM

Question: What about the DC50 (24 h, read-out: EC50 (24 h)) of the same compound?
Answer: < 100 nM

Question: With `Cc1c(OC[C@H]2CCC3(CCN(CC(=O)Nc4ccc5c(C6CCC(=O)NC6=O)nn(C)c5c4)CC3)C2)cccc1-c1ccc(N2CCc3cccc(C(=O)Nc4nc5ccccc5s4)c3C2)nc1C(=O)O` (single isomer, unassigned) [Compound 262a] as the compound, how does the “Ymin (24 h)” value [1] read?
Answer: A (Ymin < 50%)

Question: What about the DC50 (24 h, read-out: EC50 (24 h)) of the same compound?
Answer: < 100 nM

Question: `Cc1c(OC[C@@H]2CCC3(CCN(CC(=O)Nc4ccc5c(C6CCC(=O)NC6=O)nn(C)c5c4)CC3)C2)cccc1-c1ccc(N2CCc3cccc(C(=O)Nc4nc5ccccc5s4)c3C2)nc1C(=O)O` (single isomer, unassigned) [Compound 262b] was tested. Which “Ymin (24 h)” value [1] did it give?
Answer: A (Ymin < 50%)

Question: And the DC50 (24 h, read-out: EC50 (24 h))?
Answer: < 100 nM

Question: How did the “Ymin (24 h)” value [1] turn out when `Cc1c(OC[C@H](C)CC2CCN(CC(=O)Nc3ccc4c(C5CCC(=O)NC5=O)nn(C)c4c3)CC2)cccc1-c1ccc(N2CCc3cccc(C(=O)Nc4nc5ccccc5s4)c3C2)nc1C(=O)O` (single isomer, unassigned) [Compound 263a] was run?
Answer: B (50% ≤ Ymin < 70%)

Question: And the DC50 (24 h, read-out: EC50 (24 h))?
Answer: < 100 nM

Question: How did the “Ymin (24 h)” value [1] turn out when `Cc1c(OC[C@@H](C)CC2CCN(CC(=O)Nc3ccc4c(C5CCC(=O)NC5=O)nn(C)c4c3)CC2)cccc1-c1ccc(N2CCc3cccc(C(=O)Nc4nc5ccccc5s4)c3C2)nc1C(=O)O` (single isomer, unassigned) [Compound 263b] was run?
Answer: A (Ymin < 50%)

Question: What about the DC50 (24 h, read-out: EC50 (24 h)) of the same compound?
Answer: < 100 nM

Question: Which results are given for `Cc1cc(OCC[C@@H](C)C2CCN(CC(=O)Nc3ccc4c(C5CCC(=O)NC5=O)nn(C)c4c3)CC2)ccc1-c1ccc(N2CCc3cccc(C(=O)Nc4nc5ccccc5s4)c3C2)nc1C(=O)O` (single isomer, unassigned) [Compound 266a]?
Answer: Ymin (24 h) [1]: A (Ymin < 50%); DC50 (24 h, read-out: EC50 (24 h)): < 100 nM

Question: With `Cc1cc(OCC[C@H](C)C2CCN(CC(=O)Nc3ccc4c(C5CCC(=O)NC5=O)nn(C)c4c3)CC2)ccc1-c1ccc(N2CCc3cccc(C(=O)Nc4nc5ccccc5s4)c3C2)nc1C(=O)O` (single isomer, unassigned) [Compound 266b] as the compound, how does the “Ymin (24 h)” value [1] read?
Answer: A (Ymin < 50%)

Question: What about the DC50 (24 h, read-out: EC50 (24 h)) of the same compound?
Answer: < 100 nM

Question: How did the “Ymin (24 h)” value [1] turn out when `Cc1c(O[C@H]2CCC3(CCN(CC(=O)Nc4ccc5c(C6CCC(=O)NC6=O)nn(C)c5c4)CC3)C2)cccc1-c1ccc(N2CCc3cccc(C(=O)Nc4nc5ccccc5s4)c3C2)nc1C(=O)O` (single isomer, unassigned) [Compound 268a] was run?
Answer: A (Ymin < 50%)

Question: What about the DC50 (24 h, read-out: EC50 (24 h)) of the same compound?
Answer: < 100 nM

Question: For `Cc1c(O[C@@H]2CCC3(CCN(CC(=O)Nc4ccc5c(C6CCC(=O)NC6=O)nn(C)c5c4)CC3)C2)cccc1-c1ccc(N2CCc3cccc(C(=O)Nc4nc5ccccc5s4)c3C2)nc1C(=O)O` (single isomer, unassigned) [Compound 268b], which “Ymin (24 h)” value [1] is on record?
Answer: A (Ymin < 50%)

Question: What about the DC50 (24 h, read-out: EC50 (24 h)) of the same compound?
Answer: < 100 nM

Question: How did the “Ymin (24 h)” value [1] turn out when `Cc1cc(OC[C@H](C)CC2CCN(CC(=O)Nc3ccc4c(C5CCC(=O)NC5=O)nn(C)c4c3)CC2)ccc1-c1ccc(N2CCc3cccc(C(=O)Nc4nc5ccccc5s4)c3C2)nc1C(=O)O` (single isomer, unassigned) [Compound 271a] was run?
Answer: A (Ymin < 50%)

Question: What about the DC50 (24 h, read-out: EC50 (24 h)) of the same compound?
Answer: < 100 nM

Question: Which results are given for `Cc1c(OCC[C@@H]2CCC3(CCN(CC(=O)Nc4ccc5c(C6CCC(=O)NC6=O)nn(C)c5c4)CC3)C2)cccc1-c1ccc(N2CCc3cccc(C(=O)Nc4nc5ccccc5s4)c3C2)nc1C(=O)O` (single isomer, unassigned) [Compound 272b, 6-(8-(benzo[d]thiazol-2-ylcarbamoyl)-3,4-dihydro-isoquinolin-2(1 h)-yl)-3-(3-(2-((2r)-8-(2-((3-(2,6-dioxopiperidin-3-yl)-1-methyl-1 h-indazol-6-yl)amino)-2-oxoethyl)-8-azaspiro[4.5]decan-2-yl)ethoxy)-2-methylphenyl)picolinic acid]?
Answer: Ymin (24 h) [1]: A (Ymin < 50%); DC50 (24 h, read-out: EC50 (24 h)): < 100 nM

Question: Which results are given for `Cc1c(O[C@H]2CC[C@H](CC[C@H](C)N3CCN(c4ccc5c(C6CCC(=O)NC6=O)nn(C)c5c4)CC3)CC2)cccc1-c1ccc(N2CCc3cccc(C(=O)Nc4nc5ccccc5s4)c3C2)nc1C(=O)O` (single isomer, unassigned) [Compound 281a]?
Answer: Ymin (24 h) [1]: A (Ymin < 50%); DC50 (24 h, read-out: EC50 (24 h)): < 100 nM

Question: For `Cc1c(O[C@H]2CC[C@H](CC[C@@H](C)N3CCN(c4ccc5c(C6CCC(=O)NC6=O)nn(C)c5c4)CC3)CC2)cccc1-c1ccc(N2CCc3cccc(C(=O)Nc4nc5ccccc5s4)c3C2)nc1C(=O)O` (single isomer, unassigned) [Compound 281b], which “Ymin (24 h)” value [1] is on record?
Answer: A (Ymin < 50%)

Question: What about the DC50 (24 h, read-out: EC50 (24 h)) of the same compound?
Answer: < 100 nM

Question: How did the “Ymin (24 h)” value [1] turn out when `Cc1c(O[C@H]2CC[C@H](C[C@@H](C)CN3CCN(c4ccc5c(C6CCC(=O)NC6=O)nn(C)c5c4)CC3)CC2)cccc1-c1ccc(N2CCc3cccc(C(=O)Nc4nc5ccccc5s4)c3C2)nc1C(=O)O` (single isomer, unassigned) [Compound 282a] was run?
Answer: A (Ymin < 50%)

Question: And the DC50 (24 h, read-out: EC50 (24 h))?
Answer: < 100 nM

Question: What does the source list for `Cc1c(O[C@H]2CC[C@H](C[C@H](C)CN3CCN(c4ccc5c(C6CCC(=O)NC6=O)nn(C)c5c4)CC3)CC2)cccc1-c1ccc(N2CCc3cccc(C(=O)Nc4nc5ccccc5s4)c3C2)nc1C(=O)O` (single isomer, unassigned) [Compound 282b, 6-(8-(benzo[d]thiazol-2-ylcarbamoyl)-3,4-dihydroisoquinolin-2(1H)-yl)-3-(3-(((1S,4r)-4-((2S*)-3-(4-(3-(2,6-dioxopiperidin-3-yl)-1-methyl-1H-indazol-6-yl)piperazin-1-yl)-2-methylpropyl)cyclohexyl)oxy)-2-methylphenyl)picolinic acid]?
Answer: Ymin (24 h) [1]: A (Ymin < 50%); DC50 (24 h, read-out: EC50 (24 h)): < 100 nM

Question: Which “Ymin (24 h)” value [1] does the source give for `Cc1c(O[C@H]2CC[C@H](CC[C@H](C)N3CCN(c4cccc5c(C6CCC(=O)NC6=O)nn(C)c45)CC3)CC2)cccc1-c1ccc(N2CCc3cccc(C(=O)Nc4nc5ccccc5s4)c3C2)nc1C(=O)O` (single isomer, unassigned) [Compound 283a] here?
Answer: A (Ymin < 50%)

Question: What about the DC50 (24 h, read-out: EC50 (24 h)) of the same compound?
Answer: < 100 nM

Question: Which “Ymin (24 h)” value [1] does the source give for `Cc1c(O[C@H]2CC[C@H](CC[C@@H](C)N3CCN(c4cccc5c(C6CCC(=O)NC6=O)nn(C)c45)CC3)CC2)cccc1-c1ccc(N2CCc3cccc(C(=O)Nc4nc5ccccc5s4)c3C2)nc1C(=O)O` (single isomer, unassigned) [Compound 283b] here?
Answer: A (Ymin < 50%)

Question: What about the DC50 (24 h, read-out: EC50 (24 h)) of the same compound?
Answer: < 100 nM

Question: For `Cc1c(O[C@H]2CC[C@H](C[C@H](C)CN3CCN(c4cccc5c(C6CCC(=O)NC6=O)nn(C)c45)CC3)CC2)cccc1-c1ccc(N2CCc3cccc(C(=O)Nc4nc5ccccc5s4)c3C2)nc1C(=O)O` (single isomer, unassigned) [Compound 284a], which “Ymin (24 h)” value [1] is on record?
Answer: A (Ymin < 50%)

Question: And the DC50 (24 h, read-out: EC50 (24 h))?
Answer: < 100 nM

Question: With `Cc1c(O[C@H]2CC[C@H](C[C@@H](C)CN3CCN(c4cccc5c(C6CCC(=O)NC6=O)nn(C)c45)CC3)CC2)cccc1-c1ccc(N2CCc3cccc(C(=O)Nc4nc5ccccc5s4)c3C2)nc1C(=O)O` (single isomer, unassigned) [Compound 284b, 6-(8-(benzo[d]thiazol-2-ylcarbamoyl)-3,4-dihydroisoquinolin-2(1H)-yl)-3-(3-(((1R,4r)-4-((2R*)-3-(4-(3-(2,6-dioxopiperidin-3-yl)-1-methyl-1H-indazol-7-yl)piperazin-1-yl)-2-methylpropyl)cyclohexyl)oxy)-2-methylphenyl)picolinic acid] as the compound, how does the “Ymin (24 h)” value [1] read?
Answer: A (Ymin < 50%)

Question: What about the DC50 (24 h, read-out: EC50 (24 h)) of the same compound?
Answer: < 100 nM

Question: How did the “Ymin (24 h)” value [1] turn out when `Cc1c(OCC[C@@H]2CC23CCN(CC(=O)Nc2ccc4c(C5CCC(=O)NC5=O)nn(C)c4c2)CC3)cccc1-c1ccc(N2CCc3cccc(C(=O)Nc4nc5ccccc5s4)c3C2)nc1C(=O)O` (single isomer, unassigned) [Compound 289a] was run?
Answer: A (Ymin < 50%)

Question: And the DC50 (24 h, read-out: EC50 (24 h))?
Answer: < 100 nM

Question: What does the source list for `Cc1c(O[C@H]2CC[C@H](C[C@H](C)CCN3CCN(c4ccc5c(C6CCC(=O)NC6=O)nn(C)c5c4)CC3)CC2)cccc1-c1ccc(N2CCc3cccc(C(=O)Nc4nc5ccccc5s4)c3C2)nc1C(=O)O` (single isomer, unassigned) [Compound 307a]?
Answer: Ymin (24 h) [1]: A (Ymin < 50%); DC50 (24 h, read-out: EC50 (24 h)): < 100 nM

Question: For `Cc1c(O[C@H]2CC[C@H](C[C@@H](C)CCN3CCN(c4ccc5c(C6CCC(=O)NC6=O)nn(C)c5c4)CC3)CC2)cccc1-c1ccc(N2CCc3cccc(C(=O)Nc4nc5ccccc5s4)c3C2)nc1C(=O)O` (single isomer, unassigned) [Compound 307b], which “Ymin (24 h)” value [1] is on record?
Answer: A (Ymin < 50%)

Question: And the DC50 (24 h, read-out: EC50 (24 h))?
Answer: < 100 nM

Question: For `Cc1c(O[C@H]2CC[C@H](CC[C@@H](C)CN3CCN(c4ccc5c(C6CCC(=O)NC6=O)nn(C)c5c4)CC3)CC2)cccc1-c1ccc(N2CCc3cccc(C(=O)Nc4nc5ccccc5s4)c3C2)nc1C(=O)O` (single isomer, unassigned) [Compound 308a], which “Ymin (24 h)” value [1] is on record?
Answer: A (Ymin < 50%)

Question: And the DC50 (24 h, read-out: EC50 (24 h))?
Answer: < 100 nM

— patent publication US20240238423A9, “TETRAHYDROISOQUINOLINE HETEROBIFUNCTIONAL BCL-XL DEGRADERS” (Treeline Biosciences, Inc., priority 2022, published 2024)
